In patent EP1988080A1, “Insecticidal substituted 2-aminoindanes” (Bayer CropScience AG, priority 2007, dated 2008):

Experiments:
[1] = logP determination (PhysData, logP^1); settings: for logP^1: stated in preparation examples; for PhysData (logP (HCOOH)): HPLC gradient method, acetonitrile/0.1% HCOOH, EEC-Directive 79/831, Annex V.A8
[2] = tested on: Myzus persicae; assay: Myzus persicae-test (Spray application); assay type: in vivo; settings: application rate of 500 g/ha; spray on Chinese cabbage leaf-disks, all instars
Description: Myzus persicae-test (Spray application)
(§1) To produce a suitable preparation of active compound, 1 part by weight of active compound is mixed with the stated amount of solvent and emulsifier, and the concentrate is diluted with emulsifier-containing water to the desired concentration.
Chinese cabbage (Brassica pekinensis) leaf-disks infected with all instars of the green peach aphid (Myzus persicae), are sprayed with a preparation of the active ingredient at the desired concentration.
(§2) After the specified period of time, mortality in % is determined. 100 % means that all aphids have been killed; o % means that none of the […] have been killed.

[3] = physchem
[4] = tested on: Myzus persicae; assay: Myzus-test (oral); assay type: in vivo; settings: oral (suction)
Description: as §1
Hollow-ware are located with all instars of the green peach aphid (Myzus persicae). The treatement is carried out by suction of the preparation of active compound of the desired concentration.
as §2

[5] = tested on: Phaedon cochleariae; assay: Phaedon-test (spray application); assay type: in vivo; settings: application rate of 500 g/ha; spray on Chinese cabbage leaf-disks, larvae
Description: Phaedon-test (spray application)
as §1
Chinese cabage (Brassica pekinesis) leafs-disks are treated by being sprayed with the preparation of the active compound of the desired concentration nd are, after drying, infested with mustard beetle larvae (Phaedon cochleariae).
(§3) After the specified period of time, mortality in % is determined. 100 % means that all spider mites have been killed; o % means that none of the […] have been killed.

[6] = tested on: Tetranychus urticae; assay: Tetranychus-test, OP-resistant (spray application); assay type: in vivo; settings: spray on French bean
Description: Tetranychus-test, OP-resistant (spray application)
as §1
French bean (Phaseolus vulgaris) which are heavily infested with all stages of the two spotted spidermite (Tetranychus urticae), are sprayed with a preparation of the active ingredient at the desired concentration.
as §3

[7] = tested on: Boophilus microplus; assay: Boophilus microplus-test (injection); assay type: in vivo; settings: application rate of 20 µg/animal; injection in the abdomen
Description: Boophilus microplus-test (injektion)
as §1
The solution of the active compound is injected in the abdomen (Boophilus microplus); the animals are transferred into a cup and stayed in a rooming with an air condition.
After the specified period of time, the efficiany mortality in % is determined. 100 % means that no tick has lay fertile eggs.

[8] = Table I-1, cells marked (A) are 1H-NMR, not logP

Row | Compound | PhysData (logP^1) [1, 8] | activity (mortality in %) [2] [%] | chromatographic logP [3] | further results
1 | S=C(NCCc1ccccc1)N1CCOC1=NC1Cc2ccccc2C1 [1-40] | 4.6 | – | – | –
2 | S=C(NCc1cccc(Cl)c1)N1CCOC1=NC1Cc2ccccc2C1 [1-37] | – | ≥ 80 | 4.9 | –
3 | CNC(=S)N1CCOC1=NC1Cc2ccccc2C1 [1-2] | 2.36 | ≥ 80 | – | logP^1 [1]: 2.36; activity (mortality in %) ([4]; application rate of 20 ppm): ≥ 80%
4 | CCCCNC(=S)N1CCOC1=NC1Cc2ccccc2C1 [1-19] | 4.46 | ≥ 80 | – | –
5 | Fc1ccc(CNC(=S)N2CCOC2=NC2Cc3ccccc3C2)cc1 [1-47] | – | – | 4.4 | –
6 | CC(=O)NC(=S)N1CCOC1=NC1Cc2ccccc2C1 [1-10] | 2.53 | – | – | –
7 | S=C(NCc1ccccc1)N1CCOC1=NC1Cc2ccccc2C1 [1-34] | 5.2 | – | – | –
8 | CCOC(=O)CNC(=S)N1CCSC1=NC1Cc2ccccc2C1 [2-8] | – | – | – | PhysData (logP^1) ([1]; Table I-2): 4.41
9 | c1ccc2c(c1)CC(NC1=NCCN1)C2 [3-1] | – | – | – | PhysData (logP (HCOOH)) ([1]; Table I-3): 0.52
10 | S=C(NCCc1cccc(Cl)c1)N1CCOC1=NC1Cc2ccccc2C1 [1-120] | – | – | 5.1 | –
11 | CC(NC(=S)N1CCOC1=NC1Cc2ccccc2C1)c1ccc(Cl)cc1 (centres unmarked) [1-43] | – | – | 5.3 | –
12 | S=C(NCc1ccc(Cl)cc1Cl)N1CCOC1=NC1Cc2ccccc2C1 [1-49] | – | – | 5.7 | –
13 | FC(F)(F)CNC(=S)N1CCOC1=NC1Cc2ccccc2C1 [1-6] | 4.28 | ≥ 80 | – | –
14 | COC(CNC(=S)N1CCOC1=NC1Cc2ccccc2C1)OC [1-12] | – | ≥ 80 | 3.6 | activity (mortality in %) [5]: ≥ 80%
15 | c1ccc2c(c1)CC(N=C1NCCO1)C2 [1-1, 2-[2-(2,3-dihydro-1H-inden)-amino]-4,5-dihydrooxazole] | 0.81 | ≥ 80 | – | activity (mortality in %) ([6]; application rate of 100 g/ha): ≥ 80%; activity (mortality in %) ([4]; application rate of 20 ppm): ≥ 80%
16 | O=C(NCCCl)NC1Cc2ccccc2C1 [4-1] | – | ≥ 80 | – | PhysData (logP (HCOOH)) ([1]; Table 1-4): 1.92; activity (mortality in %) ([4]; application rate of 100 ppm): ≥ 80%
17 | CCC(NC(=S)N1CCOC1=NC1Cc2ccccc2C1)C(=O)OC (centres unmarked) [1-27] | 4.0 | ≥ 80 | – | –
18 | Fc1ccc2c(c1)CC(N=C1NCCO1)C2 (centres unmarked) [1-64] | 0.73 | – | – | –
19 | CCNC(=S)N1CCOC1=NC1Cc2ccccc2C1 [1-5] | 3.46 | ≥ 80 | – | –

Row | Compound | PhysData (logP^1) [1, 8] | activity (mortality in %) [2] [%] | chromatographic logP [3] | further results
20 | S=C(NCc1ccc2c(c1)OCO2)N1CCOC1=NC1Cc2ccccc2C1 [1-39] | – | ≥ 80 | 4.1 | –
21 | Cc1ccc(CNC(=S)N2CCOC2=NC2Cc3ccccc3C2)cc1 [1-46] | – | – | 4.8 | –
22 | S=C(Nc1ccccn1)N1CCOC1=NC1Cc2ccccc2C1 [1-50] | – | ≥ 80 | 1.6 | activity (mortality in %) [5]: ≥ 80%
23 | COC(=O)CNC(=S)N1CCOC1=NC1Cc2ccccc2C1 [1-8] | 3.20 | – | – | activity (mortality in %) ([4]; application rate of 20 ppm): ≥ 80%
24 | O=C(NC(=S)N1CCOC1=NC1Cc2ccccc2C1)c1ccccc1 [1-11] | 3.11 | – | – | –
25 | CCOC(=O)CC(C)NC(=S)N1CCOC1=NC1Cc2ccccc2C1 (centres unmarked) [1-23] | 4.0 | – | – | activity (mortality in %) [5]: ≥ 80%
26 | S=C(NCC1CC1)N1CCOC1=NC1Cc2ccccc2C1 [1-16] | 3.24 | ≥ 80 | – | –
27 | FC(F)(F)C1CCCC(NC(=S)N2CCOC2=NC2Cc3ccccc3C2)C1 (centres unmarked) [1-33] | – | – | 4.7 | –
28 | COCCNC(=S)N1CCOC1=NC1Cc2ccccc2C1 [1-7] | – | ≥ 80 | 3.25 | efficiency (100 % means that no tick has lay fertile eggs) [7]: ≥ 80%; activity (mortality in %) ([6]; application rate of 500 g/ha): ≥ 80%
29 | COCCNC(=S)N1CCSC1=NC1Cc2ccccc2C1 [2-7] | – | – | – | PhysData (logP^1) ([1]; Table I-2): 4.11
30 | COCCNC(=S)N1CCNC1=NC1Cc2ccccc2C1 [3-7] | – | – | – | PhysData (logP (HCOOH)) ([1]; Table I-3): 1.46; logP^1 [1]: 1.46
31 | S=C(NCc1ccccc1Cl)N1CCOC1=NC1Cc2ccccc2C1 [1-38] | – | – | 4.9 | –
32 | S=C(NCCc1ccc(Cl)cc1)N1CCOC1=NC1Cc2ccccc2C1 [1-41] | – | – | 5.1 | –
33 | FC(F)(F)C1CCC(NC(=S)N2CCOC2=NC2Cc3ccccc3C2)CC1 (centres unmarked) [1-29] | – | – | 5.1 | –
34 | S=C(NC1CCCC1)N1CCOC1=NC1Cc2ccccc2C1 [1-32] | – | ≥ 80 | 4.74 | –
35 | CC(NC(=S)N1CCOC1=NC1Cc2ccccc2C1)c1ccccc1 (centres unmarked) [1-35] | 4.4 | – | – | –
36 | COC(=O)CCCNC(=S)N1CCOC1=NC1Cc2ccccc2C1 [1-24] | 3.6 | – | – | –
37 | CCOC(=O)C(C)NC(=S)N1CCOC1=NC1Cc2ccccc2C1 (centres unmarked) [1-26] | 4.2 | ≥ 80 | – | –
38 | CC(NC(=S)N1CCOC1=NC1Cc2ccccc2C1)C(F)(F)F (centres unmarked) [1-20] | 4.62 | ≥ 80 | – | –

Row | Compound | PhysData (logP^1) [1, 8] | activity (mortality in %) [2] [%] | chromatographic logP [3] | further results
39 | CCCNC(=S)N1CCOC1=NC1Cc2ccccc2C1 [1-18] | 3.94 | ≥ 80 | – | –
40 | CCC(CC)NC(=S)N1CCOC1=NC1Cc2ccccc2C1 [1-14] | 4.90 | ≥ 80 | – | –
41 | S=C(NC1CC1)N1CCOC1=NC1Cc2ccccc2C1 [1-31] | 3.5 | – | – | –
42 | FC(F)(F)CNC(=S)N1CCSC1=NC1Cc2ccccc2C1 [2-6] | – | – | – | PhysData (logP^1) ([1]; Table I-2): 4.80; logP^1 [1]: 4.8
43 | S=C(NCc1cccnc1)N1CCOC1=NC1Cc2ccccc2C1 [1-42] | – | ≥ 80 | 2 | –
44 | CNC(=S)N1CCSC1=NC1Cc2ccccc2C1 [2-2] | – | – | – | PhysData (logP^1) ([1]; Table I-2): 4.05
45 | COC(=O)CCNC(=S)N1CCOC1=NC1Cc2ccccc2C1 [1-22] | 3.2 | ≥ 80 | – | –
46 | C=CCNC(=S)N1CCOC1=NC1Cc2ccccc2C1 [1-17] | 3.75 | ≥ 80 | – | –
47 | CCCC(C)NC(=S)N1CCOC1=NC1Cc2ccccc2C1 (centres unmarked) [1-13] | – | ≥ 80 | 5 | activity (mortality in %) [5]: ≥ 80%
48 | COC(=O)C(NC(=S)N1CCOC1=NC1Cc2ccccc2C1)C(C)C (centres unmarked) [1-25] | 4.4 | ≥ 80 | – | –
49 | COc1ccc(CNC(=S)N2CCOC2=NC2Cc3ccccc3C2)cc1OC [1-48] | – | – | 3.7 | –
50 | CC(C)NC(=S)N1CCOC1=NC1Cc2ccccc2C1 [1-30] | 4.0 | ≥ 80 | – | –
51 | CC(C)CNC(=S)N1CCOC1=NC1Cc2ccccc2C1 [1-21] | 4.51 | ≥ 80 | – | –
52 | S=C(NCc1ccc(Cl)cc1)N1CCOC1=NC1Cc2ccccc2C1 [1-36] | – | ≥ 80 | 4.9 | –
53 | S=C(NCC1CCCO1)N1CCOC1=NC1Cc2ccccc2C1 (centres unmarked) [1-28] | – | ≥ 80 | 3.6 | –
54 | CC(NC(=S)N1CCOC1=NC1Cc2ccccc2C1)c1cccc(Cl)c1 (centres unmarked) [1-45] | – | ≥ 80 | 5.3 | –
55 | CC(NC(=S)N1CCOC1=NC1Cc2ccccc2C1)c1ccccc1Cl (centres unmarked) [1-44] | – | – | 5.2 | –
56 | c1ccc2c(c1)CC(NC1=NCCS1)C2 [2-1, 2-[2-(2,3-dihydro-1H-inden)-amino]-4,5-dihydrothiazole] | – | – | – | PhysData (logP^1) ([1]; Table I-2): 0.66
